Results taken from patent publication US20030033616A1, “Imaging marker transgenes” (priority 2001, published 2003).

Columns and labels:
ScFv FITC on CHO cells = experiment: Competition binding on CHO ScFv FITC-expressing cells; conditions: in the presence of 1 nM 111In-DTPA-FITC as tracer
Experimental: Wild-type or ScFv FITC-expressing cells were plated at 3×10^4 cells/well in 96-well plates one day before binding experiments. […] Cells were gently agitated for 45 minutes at rt and then washed three times 250 ul/well PBS at 4 degrees C. […] For competition experiments, competitor compounds were diluted in 50 ul/well of PBS, 0.1% BSA and added first to washed wells containing cells as above. […] Incubations, washes and counting were performed as above.

[1] = test system: FITC ScFv expressed on CHO cells; experiment: FACS staining of CHO cells expressing FITC ScFv; format: binding
Experimental: (§1) Stable transfectants were isolated essentially as described (Mattheakis et al., 1999). All ScFv FITC expression constructs contain a neo resistance cassette. Primary G418-resistant populations were stained with mAb 179 labeled with fluorescein as follows. Antibody 179 was linked to fluorescein using fluorescein isothiocyanate (FITC, Molecular Probes, Eugene, Oreg.). This modified mAb 179 contained on average six fluoresceins per antibody molecule. Cells, ˜3-5×10^6, were resuspended in 500 μl of PBS, 0.1% BSA containing mAb 179-FITC at a final concentration of 8 μg/ml. Cells were rotated in the dark for 45 min, spun down, and subsequently resuspended in PBS and enrich sorted using a FACStar plus (Becton-Dickinson, San Jose, Calif.) based on the highest fluorescence. Enriched populations were cloned by limiting dilution and subsequently screened by ELISA. Briefly, 96well plates of clones were fixed with 200 μl per well of ice cold methanol for 10 min. Subsequent steps were done at room temperature (rt). Plates were blocked with PBS, 1% BSA for 30 min and then incubated with mAb 179, 1 μg/ml in PBS, 0.1% BSA for 1h. After 3 washes of 10 min each with PBS, wells were incubated with 1 μg/ml goat anti-mouse-HRP (Pierce, Rockford, Ill.) in PBS, 0.1% BSA for 1 h, washed with PBS three times as above, developed with a TMB peroxidase substrate colorometric assay ( Kirkegaard & Perry Laboratories, Gaithersburg, Md.) and the OD415 measured. Reactive clones were expanded, stained with mAb 179-fluorescein as above and analyzed using a FACScan (Becton-Dickinson, San Jose, Calif.) to choose those with the highest expression of the ScFv based on fluorescence. Clones were also analyzed by anti-179 Western blotting to verify the size of the ScFv protein expressed. ScFv-expressing clones were compared to wild-type CHO-K1 cells by FACScan using further reagents as follows in PBS, 0.1% BSA as above for mAb 179-fluorescein staining. FITC-BSA (Sigma, St. Louis, Mo.) was used at a final concentration of 20 μg/ml and DTPA-FITC and In-DTPA-FITC were each used at a final concentration of 2 μg/ml.

Wild-type CHO cells = experiment: FACS staining of wild-type CHO cells; format: binding
Experimental: as §1

O=C1OC2(c3ccccc31)c1cc(I)c(O)c(I)c1Oc1c2cc(I)c(O)c1I [erythrosine, reference compound]
IC50 (ScFv FITC on CHO cells): 0.309 µM

Diethylenetriaminepenta-acetic acid (DTPA) coupled to fluorescein [DTPA-FITC]
IC50 (ScFv FITC on CHO cells): 0.0118 µM
Mean (fluorescence, FACS) ([1]; marker A11): 100.62
Median (fluorescence, FACS) ([1]; marker A11): 90.58
Mean (fluorescence, FACS) ([1]; marker M1): 98.06
Median (fluorescence, FACS) ([1]; marker M1): 91.40
Mean (fluorescence, FACS) (Wild-type CHO cells; marker A11): 13.89
Median (fluorescence, FACS) (Wild-type CHO cells; marker A11): 7.99
Mean (fluorescence, FACS) (Wild-type CHO cells; marker M1): 8.24
Median (fluorescence, FACS) (Wild-type CHO cells; marker M1): 7.84
